Measured values taken from publication PMC3408606 (Thrombosis and haemostasis, 2011).
Like-named read-outs stand apart in the source and are kept apart here.

Key:
triplatin [1] = biological target: T1, triplatin (Triatoma infestans, UniProt Q18NS7)
platelets = assay: Platelet aggregation; assay type: cell-based, human; settings: for Effect on ADP-induced platelet aggregation: indometacin 50 μM
ApoD = assay: Isothermal titration calorimetry of ligand binding to ApoD; settings: ITC, ApoD expressed in HEK293 cells
triplatin [2] = biological target: T1, triplatin; assay: biochemical

T1 sequence (Q18NS7 19-182 limits assumed): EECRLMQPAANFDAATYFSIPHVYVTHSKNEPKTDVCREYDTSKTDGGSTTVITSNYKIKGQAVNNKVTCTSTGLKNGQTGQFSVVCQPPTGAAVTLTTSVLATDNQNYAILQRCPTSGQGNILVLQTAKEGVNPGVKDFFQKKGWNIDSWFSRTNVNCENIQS

## O=C(O)CCC/C=C\C/C=C\C/C=C\C/C=C\CCCCCO [20-HETE]
Triplatin [1]; ITC, Figure 3 or not shown
  Binding to triplatin: not observed

## CCCCC/C=C\C/C=C\C[C@H](O)/C=C/C=C\CCCC(=O)O [9s-HETE]
Triplatin [1]
  Kd: > 1000 nM

## COc1ccc2c(c1)c(CC(=O)O)c(C)n2C(=O)c1ccc(Cl)cc1 [indometacin]
platelets; ADP 1 μM (low dose)
  Effect on ADP-induced platelet aggregation: not affected
platelets; ADP 10 μM
  Effect on ADP-induced platelet aggregation: attenuated
platelets; collagen 6.6 μg/ml, inhibitor alone: indometacin 50 μM, SQ29548 0.2 μM, triplatin 1 μM
  Inhibition of collagen-induced platelet aggregation: partial inhibition

## CCCCC[C@H](O)/C=C/[C@H]1OC(O)C[C@H](O)[C@@H]1C/C=C\CCCC(=O)O (stereo partly shown) [TXB2]
Triplatin [1]
  Kd: 355 ± 6.7 nM
  TΔS: -2.58 kcal/mol
  ΔG: -8.95 kcal/mol
  ΔH: -11.53 ± 0.92 kcal/mol

## CCCCC[C@H](O)/C=C/[C@H]1C(=O)C=C[C@@H]1C/C=C\CCCC(=O)O [PGJ2]
Triplatin [1]
  Kd: 111 ± 3.4 nM
  TΔS: -1.49 kcal/mol
  ΔG: -9.65 kcal/mol
  ΔH: -11.14 ± 0.38 kcal/mol

## CCCCC[C@H](O)/C=C/[C@@H]1[C@@H](C/C=C\CCCC(=O)O)[C@@H](O)C[C@H]1O [PGF2α]
Triplatin [1]; calculated free energy, ITC 30°C, n.d. = no binding detected
  ΔG: -9.25 kcal/mol
ApoD
  Binding to ApoD: failed to detect binding
Triplatin [2]
  Kd: 215 ± 10 nM

## CCCCC/C=C\C/C=C\C/C=C\C/C=C\CCCC(=O)O [Arachidonic acid, arachidonic acid]
Triplatin [1]; ITC, Figure 3 or not shown
  Binding to triplatin: not observed
ApoD
  Binding to ApoD: failed to detect binding

## NCCc1c[nH]cn1 [Histamine, histamine]
Triplatin [1]; ITC, Figure 3 or not shown
  Binding to triplatin: not observed

## CCCCC/C=C\C[C@H](O)/C=C/C=C\C/C=C\CCCC(=O)O [12(S)-HETE]
Triplatin [1]; ITC, Figure 3 or not shown
  Binding to triplatin: not observed

## O=C(O)CCC/C=C\C[C@@H]1[C@H](CNNC(=O)Nc2ccccc2)[C@H]2CC[C@@H]1O2 [SQ29548]
platelets
  Inhibition of collagen-induced platelet aggregation: partial inhibition

## CCCCC[C@H](O)/C=C/C=C\C/C=C\C/C=C\CCCC(=O)O [15s-HETE]
Triplatin [2]
  Kd: > 1000 nM

## CCCCC/C=C\C\C=C/C=C/C=C/[C@@H](SC[C@H](NC(=O)CC[C@H](N)C(=O)O)C(=O)NCC(=O)O)[C@@H](O)CCCC(=O)O [LTC4]
Triplatin [1]
  Binding to triplatin: not observed

## CCCCC[C@H](O)/C=C/[C@H]1[C@H](O)CC(=O)[C@@H]1CCCCCCC(=O)O [PGE1]
Triplatin [1]
  Binding to triplatin: not observed

## CCCCC[C@H](O)/C=C/[C@H]1CC2CC(C2)[C@@H]1C/C=C\CCCC(=O)O [cTXA2]
Triplatin [1]
  Kd: 369 ± 103 nM
  TΔS: -3.90 kcal/mol
  ΔG: -8.93 kcal/mol
  ΔH: -12.83 ± 0.73 kcal/mol
ApoD
  Binding to ApoD: failed to detect binding

## CCCCC[C@H](O)/C=C/[C@@H]1[C@@H](C/C=C\CCCC(=O)O)[C@H]2CO[C@@H]1C2 [U46619]
Triplatin [1]
  Kd: 294 ± 51 nM
  TΔS: -2.46 kcal/mol
  ΔG: -9.06 kcal/mol
  ΔH: -11.52 ± 0.38 kcal/mol

## Nc1ncnc2c1ncn2[C@@H]1O[C@H](COP(=O)(O)OP(=O)(O)O)[C@@H](O)[C@H]1O [ADP, adenosine diphosphate]
Triplatin [1]; ITC, Figure 3 or not shown
  Binding to triplatin: not observed
